We go through one compound from article PMC10578023 (Cell Communication and Signaling : CCS, 2023).

Series [1] relates to TYK2/JAK1. As to the kind of experiment: IFNα HEK293 (HEK-Blue IFN-α/β) reporter gene assay. The class given is cell-based, human. The protocol: HEK-Blue™ IFN-α/β cells were used to determine the activity of QL-1200186. After 24 h of incubation with QL-1200186, HEK-Blue™ IFN-α/β cells (Invivogen; NKB-IFNAB) were stimulated with human IFNα (200 U/mL; catalog number: 11200–2; PBL Assay Science; Piscataway, NJ, USA) for 6 h. Stimulation of HEK-Blue IFN-α/β cells with human IFNα activates the JAK/STAT/ISGF3 pathway and subsequently induces the production of SEAP. Levels of SEAP in the supernatant were readily assessable using QUANTI-Blue™ Solution (InvivoGen, San Diego, CA, USA).
(In general: In a reporter assay the amount or activity of a reporter protein is the signal.)

For series [2], the system named is TYK2/JAK1. Briefly: IL-23-induced pSTAT3 in human Th17 cells. The class given is cell-based. The protocol: Human naïve CD4^+ T cells were separated using a human naïve CD4^+ T-cell isolation kit (StemCell, #17,852), and then cells were stimulated with anti-CD3 monoclonal antibody and anti-CD28 monoclonal antibody for 7–10 days under the following Th17-skewing treatments: IL-6, IL-23, IL-1β and transforming growth factor-β. Half of the medium was replaced with fresh medium containing a stimulant to induce differentiation every other day. Th17 cells were incubated overnight at 37 °C for deactivation. Cells were reinoculated on 96-well plates and cocultured with gradient-diluted QL-1200186 for 1 h and then stimulated with recombinant human IL-23 (ACRO: #IL-B-H52 WS) for 0.5 h. Cells were collected, and phosphorylation of STAT3 was quantified according to the MFI.

In series [3] the test system is TYK2/JAK1. As to the kind of experiment: IFNα-induced pSTAT1 in CD3+ T cells of human PBMCs. The class given is cell-based. The protocol: (§1) The reaction was terminated by collecting cells for surface staining. Cells were stained with anti-CD3 FITC (300406; Biolegend, San Diego, CA, USA), anti-CD19 APC (555415; BD Biosciences) or aqua fluorescent reactive dye BV421 (L34966A; Invitrogen, Carlsbad, CA, USA) antibodies for 20 min. After washing, fixation buffer (557870; BD Biosciences) was added and incubated for 10 min. Cells were washed and permeabilized on ice using Perm III Buffer (558050; BD Biosciences). Cells were stained with PE anti-PSTAT1 antibody (562069; BD Biosciences) for 30 min and analyzed by flow cytometry.

For series [4], the system named is TYK2/JAK1. As to the kind of experiment: IFNα-induced pSTAT1 in CD19+ B cells of human PBMCs. Type of series: cell-based. The protocol:
as §1

The subject of series [5] is JAK1/JAK3. Briefly: IL-2-stimulated pSTAT5 in human whole blood. The class given is cell-based. As to the method: With respect to IL-2-stimulated JAK1/3 activation in human whole blood cells, whole blood (50 μL) was preincubated with compounds for 30 min and then stimulated with IL-2 (20 ng/mL) for 15 min.
The stimulations stated above were terminated with prewarmed Lyse/Fix Buffer (558,049; BD Biosciences, San Jose, CA, USA) for 10 min. Cells were stained with an anti-cluster of differentiation (CD)3 fluorescein isothiocyanate (FITC) antibody (required for PBMCs but not for the other cell types), washed, and permeabilized on ice using Perm III Buffer (558,050; BD Biosciences) prior to staining with an Alexa Fluor 647 anti-phosphorylated (p)STAT5 (pY694) antibody for 30 min and analyzed by flow cytometry. Phosphorylation of STAT5 was quantified by the median fluorescence intensity (MFI) after gating on the CD3-positive population.

Series [6] deals with human monocytes. Briefly: IFNα-induced differentiation of human monocytes to dendritic cells (CD80, CD83, CD86). The class given is cell-based. As to conditions: 5, 20 or 100 nM, 6 days. As to the method:
First, monocytes in human PBMCs were isolated using an EasySep™ Human CD14 Positive Selection Kit II (17858; Stemcell Technologies, Vancouver, Canada). […] The media were half-changed on days 3 and 5. On day 6, cells were collected and stained with BV421 aqua fluorescent reactive dye (L34966A; Invitrogen), FITC mouse anti-human CD80 (555683; BD Biosciences), PE mouse anti-human CD86 (560957; BD Biosciences) or BUV737 mouse anti-human CD83 (612823; BD Biosciences) antibodies for 20 min. After staining, cells were washed twice and analyzed by flow cytometry.

Series [7] concerns TYK2/JAK2. Briefly: IL-12/IL-18-induced IFNγ production in human whole blood, ELISA. Type of series: cell-based. The note with it: IL-12-induced. As to the method:
The inhibitory effect of QL-1200186 on IL-12/IL-18-induced IFNγ production in NK cells or human whole blood was determined by enzyme-linked immunosorbent assay (ELISA). NK92 cells were stimulated with recombinant human IL-12 (2 ng/mL; 200–12; PeproTech, Cranbury, NJ, USA) and recombinant human IL-18 (5 ng/mL; 9124-IL-050/CF; R&D Systems, Minneapolis, MN, USA) with or without QL-1200186 for 24 h at 37 °C. For human whole blood cells, whole blood (200 μL) was preincubated with the compound for 1 h and then stimulated with recombinant human IL-12 (2 ng/mL) or recombinant human IL-18 (10 ng/mL) for 24 h. After centrifugation, the supernatant was collected, and IFNγ production in the supernatant was measured with human IFNγ ELISA kits according to the manufacturer’s instructions (Biolegend, 430,104).

A short description of series [8]: Pharmacokinetic study in C57BL/6 mice. The class given is in vivo. The protocol: The PK study was conducted using healthy male C57BL/6 mice (18–22 g, n = 6). Mice were fed and given free access to water prior to dosing. QL-1200186 was administered via oral or intravenous routes at doses of 10 mg/kg and 1 mg/kg, respectively. Blood samples were collected at 0.0833, 0.25, 0.5, 1, 2, 4, 8 and 24 h from the saphenous vein. Plasma was separated within 1 h of sampling by centrifugation at 1000 g. Liquid chromatography–tandem mass spectrometry of the sample was carried out on a mass spectrometer (API 5500; AB Sciex, Framingham, MA, USA). Chromatographic separation was achieved using a C18 column (2.6 µm, 50 × 3.0 mm; Kinetex; Phenomenex, Torrance, CA, USA). The main PK parameters were calculated by WinNonlin 8.0 (Certara, Princeton, NJ, USA).

Series [9] is described as follows: Plasma protein binding. Type of series: in vitro ADME. As to the method: The ADME properties of QL-1200186 in vitro were measured by the following assays: Caco-2 permeability assay, CYP inhibition assay, protein binding assay, and liver microsome assay. Each assay was performed as previously described.
For series [10] the following is noted: dogs, data not shown.

As for `CNC(=O)c1cnc2cc1Nc1cc(cc(-c3ccn(C)n3)c1OC)CCOCc1cccc(n1)N2` [QL-1200186, 5^6-methoxy-N-methyl-5^5-(1-methyl-1H-pyrazol-3-yl)-8-oxa-2,4-diaza-1(2,6),3(2,4)-dipyridina-5(1,3)-benzenacyclononaphane-3^5-carboxamide], the IC50 (as a rule, the concentration that gives 50% inhibition) in series [1] was determined as 3.9 nM; in series [2], 1.03 nM; in series [3] it was 1.61 nM; in series [4] it was 1.43 nM. Besides, the “activity in IL-2-mediated JAK1/JAK3 signaling” value in [5] is listed as “no activity”. In [6], the “differentiation and maturation of monocytes into dendritic cells (CD80, CD83, CD86 expression)” value is “significantly inhibited”. Besides, in series [7], the “IFNγ production in human whole blood” value was “significantly reduced”. Further, the results for the AUC in [8] (intravenous 1 mg/kg) and in series [8] (oral 10 mg/kg) were 1482 ng·h/mL and 20320 ng·h/mL, respectively. The compound also returned a CL in [8] (intravenous 1 mg/kg) of 11.6 mL/min/kg. Also, the figures for the MRTInf in [8] (intravenous 1 mg/kg) and in series [8] (oral 10 mg/kg) were 1.22 h and 4.34 h, respectively. Besides, the T1/2 is 1.45 h in series [8] (intravenous 1 mg/kg) and 2.73 h in [8] (oral 10 mg/kg). In addition, the Vss – broadly, a proportionality between amount in the body and measured concentration, not a real space – in series [8] (intravenous 1 mg/kg) came to 0.842 L/kg. Besides, in [8] (oral 10 mg/kg), the Cmax (as a rule, the highest concentration seen after dosing) came to 3543 ng/mL. Besides, the “F (bioavailability)” value in [8] (oral 10 mg/kg) worked out at 137%. Also, the “PPB (%, free)” value in series [9] (Dog) is reported as 3.7%; in [9] (Human), 0.844%; in [9] (Monkey), 2.8%; in series [9] (Mouse), 0.201%; in series [9] (Rat) it was 1.3%. Also, the “safety in toxicological studies” value in [10] is “excellent safety”.
